# Test results reported in ChEMBL document CHEMBL3272044, “Cholinergic compounds. 9. Cyclohexane analogues of deoxamuscarine and derivatives” (J Med Chem, 1977).
# Organism: Cavia porcellus
# Assay: Activity at muscarinic receptor in guinea pig terminal ileum assessed as compound required for 50% effect relative to acetylcholine
# Assay type: tissue-based
row,SMILES,Ratio
1,C[N+](C)(C)C[C@H]1CCC[C@@H](O)C1 (relative stereo),> 10000
2,C[N+](C)(C)CC1CCCCC1,203
3,C[N+](C)(C)C[C@@H]1CC=CCC1,269
4,C[C@H]1C[C@H](C[N+](C)(C)C)C[C@H]1O,454
5,C[N+](C)(C)C[C@H]1CC[C@@H](O)C1,3590
6,C[C@@H]1C[C@H](C[N+](C)(C)C)C[C@H]1O,9.8
7,C[N+](C)(C)C[C@H]1CCC[C@H](O)C1 (relative stereo),2900
8,C[N+](C)(C)C[C@H]1CCCC(=O)C1,507
9,C[N+](C)(C)CC1CCCC1,16
10,C[C@H]1CC[C@@H](C[N+](C)(C)C)C1,100
11,C[N+](C)(C)C[C@H]1CCC(=O)C1,50
12,C[N+](C)(C)C[C@H]1CC[C@H](O)C1,221
13,C[N+](C)(C)CC1CC=CC1,11
14,C[C@H]1C[C@H](C[N+](C)(C)C)C[C@@H]1O,100
15,CC1C[C@H](C[N+](C)(C)C)CC1=O (some centres not stated),0.5
16,CC1=CC[C@@H](C[N+](C)(C)C)C1,30
17,C[C@@H]1C[C@H](C[N+](C)(C)C)C[C@@H]1O,500
